Reference: PubChem BioAssay AID1963850 (Molecular Pharmacology Branch, DTP, NCI, 2024)
pIC50: −log10 of the molar value.

System: 192522-019-R-J2-PDC complex tumor spheroid viability
Test: Anticancer human tumor 192522-019-R-J2-PDC patient-derived colon adenocarcinoma cell line growth inhibition [POLQ]
Conditions: for pIC50: curve of first compound; for viability, T/C: stronger effect = lower value
In short: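 Three-cell-type spheroids modelling solid tumor plus stroma served as the readout system; POL inhibitors were tested individually and in combination, concentration ranges set by clinical Cmax where known.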

[1] = second compound 0.0316 µM, first compound 0.0316 µM
[2] = second compound 0.0316 µM, first compound 0.1 µM
[3] = second compound 0.0316 µM, first compound 0.316 µM
[4] = second compound 0.0316 µM, first compound 1 µM
[5] = second compound 0.0316 µM, first compound 3.16 µM
[6] = second compound 0.0316 µM, first compound 10 µM
[7] = second compound 0.1 µM, first compound 0.0316 µM
[8] = second compound 0.1 µM, first compound 0.1 µM
[9] = second compound 0.1 µM, first compound 0.316 µM
[10] = second compound 0.1 µM, first compound 1 µM
[11] = second compound 0.1 µM, first compound 3.16 µM
[12] = second compound 0.1 µM, first compound 10 µM
[13] = second compound 0.316 µM, first compound 0.0316 µM
[14] = second compound 0.316 µM, first compound 0.1 µM
[15] = second compound 0.316 µM, first compound 0.316 µM
[16] = second compound 0.316 µM, first compound 1 µM
[17] = second compound 0.316 µM, first compound 3.16 µM
[18] = second compound 0.316 µM, first compound 10 µM
[19] = second compound 1 µM, first compound 0.0316 µM
[20] = second compound 1 µM, first compound 0.1 µM
[21] = second compound 1 µM, first compound 0.316 µM
[22] = second compound 1 µM, first compound 1 µM
[23] = second compound 1 µM, first compound 3.16 µM
[24] = second compound 1 µM, first compound 10 µM
[25] = second compound 3.16 µM, first compound 0.0316 µM
[26] = second compound 3.16 µM, first compound 0.1 µM
[27] = second compound 3.16 µM, first compound 0.316 µM
[28] = second compound 3.16 µM, first compound 1 µM
[29] = second compound 3.16 µM, first compound 3.16 µM
[30] = second compound 3.16 µM, first compound 10 µM
[31] = second compound 10 µM, first compound 0.0316 µM
[32] = second compound 10 µM, first compound 0.1 µM
[33] = second compound 10 µM, first compound 0.316 µM
[34] = second compound 10 µM, first compound 1 µM
[35] = second compound 10 µM, first compound 3.16 µM
[36] = second compound 10 µM, first compound 10 µM
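Note: spheroids exposed to drugs for seven days before reading.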
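Throughout, for viability, T/C: 100% = DMSO vehicle control viability in luminescence.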

C=CC(=O)N1CCN(c2nc(=O)n(-c3c(C)ccnc3C(C)C)c3nc(-c4c(O)cccc4F)c(F)cc23)C(C)C1 (stereo not drawn) + COC1C(OC(N)=O)C(O)C(Oc2ccc3c(O)c(NC(=O)c4ccc(O)c(CC=C(C)C)c4)c(=O)oc3c2C)OC1(C)C
pIC50 (second compound 0.0316 µM): < 5.00
pIC50 (second compound 0.1 µM): < 5.00
pIC50 (second compound 0.316 µM): < 5.00
pIC50 (second compound 1 µM): < 5.00
pIC50 (second compound 3.16 µM): < 5.00
pIC50 (second compound 10 µM): < 5.00
viability, T/C [1]: 107%
viability, T/C [2]: 96.2%
viability, T/C [3]: 103%
viability, T/C [4]: 98.7%
viability, T/C [5]: 107%
viability, T/C [6]: 97%
viability, T/C [7]: 101%
viability, T/C [8]: 91.1%
viability, T/C [9]: 93.3%
viability, T/C [10]: 96.5%
viability, T/C [11]: 101%
viability, T/C [12]: 105%
viability, T/C [13]: 103%
viability, T/C [14]: 101%
viability, T/C [15]: 101%
viability, T/C [16]: 99.7%
viability, T/C [17]: 105%
viability, T/C [18]: 114%
viability, T/C [19]: 97.7%
viability, T/C [20]: 105%
viability, T/C [21]: 112%
viability, T/C [22]: 110%
viability, T/C [23]: 109%
viability, T/C [24]: 121%
viability, T/C [25]: 103%
viability, T/C [26]: 105%
viability, T/C [27]: 109%
viability, T/C [28]: 106%
viability, T/C [29]: 117%
viability, T/C [30]: 102%
viability, T/C [31]: 104%
viability, T/C [32]: 92.5%
viability, T/C [33]: 105%
viability, T/C [34]: 96.8%
viability, T/C [35]: 118%
viability, T/C [36]: 107%

CC(C)n1c(=O)n(C)c2cnc3cc(F)c(-c4ccc(OCCCN5CCCCC5)nc4)cc3c21 + COC1C(OC(N)=O)C(O)C(Oc2ccc3c(O)c(NC(=O)c4ccc(O)c(CC=C(C)C)c4)c(=O)oc3c2C)OC1(C)C
pIC50 (second compound 0.0316 µM): < 5.00
pIC50 (second compound 0.1 µM): < 5.00
pIC50 (second compound 0.316 µM): < 5.00
pIC50 (second compound 1 µM): < 5.00
pIC50 (second compound 3.16 µM): < 5.00
pIC50 (second compound 10 µM): < 5.00
viability, T/C [1]: 107%
viability, T/C [2]: 93.2%
viability, T/C [3]: 115%
viability, T/C [4]: 112%
viability, T/C [5]: 112%
viability, T/C [6]: 93.9%
viability, T/C [7]: 97.5%
viability, T/C [8]: 100%
viability, T/C [9]: 108%
viability, T/C [10]: 108%
viability, T/C [11]: 104%
viability, T/C [12]: 95.2%
viability, T/C [13]: 97.8%
viability, T/C [14]: 95.5%
viability, T/C [15]: 117%
viability, T/C [16]: 115%
viability, T/C [17]: 120%
viability, T/C [18]: 106%
viability, T/C [19]: 96.8%
viability, T/C [20]: 102%
viability, T/C [21]: 104%
viability, T/C [22]: 110%
viability, T/C [23]: 94.9%
viability, T/C [24]: 104%
viability, T/C [25]: 98.1%
viability, T/C [26]: 107%
viability, T/C [27]: 114%
viability, T/C [28]: 108%
viability, T/C [29]: 122%
viability, T/C [30]: 102%
viability, T/C [31]: 118%
viability, T/C [32]: 112%
viability, T/C [33]: 114%
viability, T/C [34]: 120%
viability, T/C [35]: 110%
viability, T/C [36]: 107%

CCc1cc2c(N3CCc4c(cc(Cn5ccnc5)cc4-c4cn(C)nc4C(F)(F)F)C3=O)ccnc2c(OC)n1 + COC1C(OC(N)=O)C(O)C(Oc2ccc3c(O)c(NC(=O)c4ccc(O)c(CC=C(C)C)c4)c(=O)oc3c2C)OC1(C)C
pIC50 (second compound 0.0316 µM): < 5.00
pIC50 (second compound 0.1 µM): < 5.00
pIC50 (second compound 0.316 µM): < 5.00
pIC50 (second compound 1 µM): < 5.00
pIC50 (second compound 3.16 µM): < 5.00
pIC50 (second compound 10 µM): < 5.00
viability, T/C [1]: 98.8%
viability, T/C [2]: 89.9%
viability, T/C [3]: 86.5%
viability, T/C [4]: 89.3%
viability, T/C [5]: 88.8%
viability, T/C [6]: 63%
viability, T/C [7]: 101%
viability, T/C [8]: 88.9%
viability, T/C [9]: 93.7%
viability, T/C [10]: 84.7%
viability, T/C [11]: 78.5%
viability, T/C [12]: 67.7%
viability, T/C [13]: 101%
viability, T/C [14]: 93.7%
viability, T/C [15]: 89.9%
viability, T/C [16]: 90.9%
viability, T/C [17]: 68.3%
viability, T/C [18]: 71.2%
viability, T/C [19]: 101%
viability, T/C [20]: 94%
viability, T/C [21]: 85.4%
viability, T/C [22]: 96.6%
viability, T/C [23]: 76.7%
viability, T/C [24]: 67.8%
viability, T/C [25]: 106%
viability, T/C [26]: 102%
viability, T/C [27]: 92%
viability, T/C [28]: 91.9%
viability, T/C [29]: 90.5%
viability, T/C [30]: 68.3%
viability, T/C [31]: 97.5%
viability, T/C [32]: 88.7%
viability, T/C [33]: 95.6%
viability, T/C [34]: 92.1%
viability, T/C [35]: 87.3%
viability, T/C [36]: 74.7%

COc1ccc([C@@H](O)c2cc(-c3ncnc4cc(N5CCOCC5)ccc34)c(F)cc2Cl)nn1 + COC1C(OC(N)=O)C(O)C(Oc2ccc3c(O)c(NC(=O)c4ccc(O)c(CC=C(C)C)c4)c(=O)oc3c2C)OC1(C)C
pIC50 (second compound 0.0316 µM): < 5.00
pIC50 (second compound 0.1 µM): < 5.00
pIC50 (second compound 0.316 µM): < 5.00
pIC50 (second compound 1 µM): < 5.00
pIC50 (second compound 3.16 µM): < 5.00
pIC50 (second compound 10 µM): < 5.00
viability, T/C [1]: 105%
viability, T/C [2]: 87.2%
viability, T/C [3]: 120%
viability, T/C [4]: 97.7%
viability, T/C [5]: 99.8%
viability, T/C [6]: 63.1%
viability, T/C [7]: 109%
viability, T/C [8]: 97.6%
viability, T/C [9]: 106%
viability, T/C [10]: 95.5%
viability, T/C [11]: 88.1%
viability, T/C [12]: 62.4%
viability, T/C [13]: 117%
viability, T/C [14]: 93.2%
viability, T/C [15]: 103%
viability, T/C [16]: 107%
viability, T/C [17]: 97.8%
viability, T/C [18]: 68.5%
viability, T/C [19]: 109%
viability, T/C [20]: 106%
viability, T/C [21]: 104%
viability, T/C [22]: 92.9%
viability, T/C [23]: 86.8%
viability, T/C [24]: 63.1%
viability, T/C [25]: 96%
viability, T/C [26]: 99.2%
viability, T/C [27]: 117%
viability, T/C [28]: 84.9%
viability, T/C [29]: 98.1%
viability, T/C [30]: 72.9%
viability, T/C [31]: 103%
viability, T/C [32]: 104%
viability, T/C [33]: 114%
viability, T/C [34]: 108%
viability, T/C [35]: 99.2%
viability, T/C [36]: 66.9%
